# In US8629273B2, “Diazinylpyrazolyl compounds” (Bayer Intellectual Property GmbH, priority 2009, dated 2014):
# Legend:
# Boophilus microplus = Boophilus microplus test (BOOPMI injection); assay type: in vivo; conditions: 20 μg/animal, injected into the abdomen, after 7 days
# Summary of the method: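 Compound dissolved in DMSO, diluted with water and injected into the tick abdomen; ticks kept in a climatized room. Fertile egg deposition assessed after 7 days; 100% means no tick laid fertile eggs.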
# Lucilia cuprina larvae = test: Lucilia cuprina test (LUCICU); assay type: in vivo; conditions: 100 ppm, treated horse meat, after 2 days
# Summary of the method: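 Horse meat treated with compound diluted in water from DMSO concentrate, then populated with larvae. Mortality scored after 2 days as percent kill, 100% meaning all larvae dead.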
# [1] = tested on: larvae of the mustard beetle (Phaedon cochleariae); test: Phaedon test (PHAECO spray treatment); assay type: in vivo; conditions: 100 g/ha, after 7 days
# Summary of the method: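 Chinese cabbage leaf discs were sprayed with compound formulated in acetone/dimethyl formamide plus alkylaryl polyglycol ether emulsifier, diluted in emulsifier-containing water to the desired concentration. After drying, discs were infested with mustard beetle larvae. Mortality (%) was scored after 7 days, where 100% means all larvae killed.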
# [2] = tested on: caterpillars of the army worm (Spodoptera frugiperda); test: Spodoptera frugiperda test (SPODFR spray treatment); assay type: in vivo; conditions: after 7 days
# Summary of the method: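 Maize leaf discs sprayed with compound in acetone/DMF with alkylaryl polyglycol ether emulsifier, diluted in emulsifier-containing water to the test concentration. Once dry, discs were infested with army worm caterpillars. Mortality scored after 7 days as % activity (100% = all caterpillars killed).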
# [3] = tested on: green peach affid (Myzus persicae); test: Myzus test (MYZUPE spray treatment); assay type: in vivo; conditions: 100 g/ha, after 6 days
# Protocol: Solvents: 78 parts by weight of acetone
# • 1.5 parts by weight of dimethyl formamide Emulsifier: 0.5 part by weight of alkylaryl polyglycol ether
# To produce a suitable preparation of active compound, 1 part by weight of active compound is mixed with the stated amounts of solvent and emulsifier, and the concentrate is diluted with emulsifier-containing water to the desired concentration.
# Discs of Chinese cabbage leaves (Brassica pekinensis) infested by all stages of the green peach affid (Myzus persicae) are sprayed with an active compound preparation of the desired concentration.
# After 6 days, the activity in % is determined. 100% means that all affids have been killed; 0% means that none of the affids have been killed.
# adult Musca domestica = test: Musca domestica test (MUSCDO); assay type: in vivo; conditions: treated sponge
# Summary of the method: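 Compound taken up in DMSO and diluted with water to test concentration, applied to a sponge in vessels then stocked with adult houseflies. Kill % scored after the set period; 100% = all flies dead, 0% = none.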
# [4] = logP by HPLC on reversed-phase columns (C 18), EU Guideline 79/831 Annex V.A8; assay type: physicochemical
# Ctenocephalides felis = Ctenocephalides felis oral (CTECFE); assay type: in vivo; conditions: 100 ppm in citrated cattle blood, after 2 days
# Summary of the method: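 Twenty unfed adult fleas fed through parafilm on citrated cattle blood containing compound, diluted from a DMSO concentrate (10 mg per 0.5 ml). Kill % scored after 2 days (100% = all dead, 0% = none).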
# [5] = tested on: greenhouse red spider mite (Tetranychus urticae); test: Tetranychus test, OP resistant (TETRUR spray treatment); assay type: in vivo; conditions: after 6 days
# Protocol: Solvents: 78.0 parts by weight of acetone • • 1.5 parts by weight of dimethyl formamide Emulsifier: 0.5 part by weight of alkylaryl polyglycol ether To produce a suitable preparation of active compound, 1 part by weight of active compound is mixed with the stated amounts of solvent and emulsifier, and the concentrate is diluted with emulsifier-containing water to the desired concentration. Discs of bean leaves (Phaseolus vulgaris) which are infested by all stages of the greenhouse red spider mite (Tetranychus urticae) are sprayed with an active compound preparation of the desired concentration. After 6 days, the activity in % is determined. 100% means that all spider mites have been killed; 0% means that none of the spider mites has been killed. The test was carried out and evaluated as described in Example B.7.
# [6] = tested on: Boophilus microplus strain Parkhurst (SP-resistant); test: Boophilus microplus test (DIP); assay type: in vivo; conditions: 100 ppm
# Protocol: Test animals: adult fed females of the Boophilus microplus strain Parkhurst (SP-resistant)
# Solvent: Dimethyl sulphoxide
# 10 mg of active compound are dissolved in 0.5 ml of dimethyl sulphoxide. To produce a suitable formulation, the active compound solution is diluted with water to the particular desired concentration. This active compound preparation is pipetted into tubes. 8-10 ticks are transferred into a further tube provided with holes. The tube is dipped into the active compound preparation, with all ticks being wetted completely. After the liquid has run off, the ticks are transferred to filter discs in plastic dishes and kept in a climatized room. After the desired period of time, the activity is checked for deposition of fertile eggs. Eggs whose fertility is not visible from the outside are kept in glass tubes in a climatized cupboard under the larvae have hatched. An activity of 100% means that no tick has laid fertile eggs.
# [7] = ** LC-MS in the neutral range, pH 7.8, 0.001 molar aqueous ammonium bicarbonate and acetonitrile
smiles,measurement,setting,value
CCOC=Nc1c(-c2cc(Cl)cc(C(F)(F)F)c2)c(C(F)(F)F)nn1-c1ncccn1 [Example 1-11],activity (no deposition of fertile eggs),Boophilus microplus,100%
same,kill,Lucilia cuprina larvae,100%
same,activity (beetle larvae killed),[1],100%
same,activity (caterpillars killed),[2]; 100 g/ha,100%
same,activity (affids killed),[3],90%
same,kill,adult Musca domestica; 100 ppm,80%
same,logP,"[4]; * LC-MS in the acidic range, pH 2.7, 0.1% aqueous formic acid and acetonitrile",4.61*
same,logP,[4]; [7],4.58**;
CCCCOC=Nc1c(-c2cc(Cl)cc(C(F)(F)F)c2)c(C(F)(F)F)nn1-c1ncccn1 [Example 1-15],activity (no deposition of fertile eggs),Boophilus microplus,100%
same,kill,Ctenocephalides felis,100%
same,kill,Lucilia cuprina larvae,100%
same,activity (beetle larvae killed),[1],100%
same,activity (caterpillars killed),[2]; 100 g/ha,100%
same,activity (affids killed),[3],80%
same,activity (spider mites killed),[5]; 100 g/ha,100%
same,kill,adult Musca domestica; 100 ppm,80%
same,logP,[4]; [7],5.24**
FC(F)(F)c1nn(-c2ncccn2)c(N=Cc2ccccc2)c1-c1cc(Cl)c2c(c1)OCO2 [Example 1-18],activity (no deposition of fertile eggs),Boophilus microplus,100%
same,kill,Ctenocephalides felis,100%
same,kill,Lucilia cuprina larvae,100%
same,activity (beetle larvae killed),[1],100%
same,activity (caterpillars killed),[2]; 20 g/ha,67%
same,activity (caterpillars killed),[2]; 100 g/ha,100%
same,activity (spider mites killed),[5]; 20 g/ha,at least 90%
same,activity (spider mites killed),[5]; 100 g/ha,90%
same,kill,adult Musca domestica; 20 ppm,80%
same,activity (no deposition of fertile eggs),[6],100%
same,logP,[4]; [7],3.97**
FC(F)C(F)(F)c1nn(-c2ncccn2)c(N=Cc2ccc(Cl)cc2)c1-c1cc(Cl)c2c(c1)OCO2 [Example 1-22],activity (no deposition of fertile eggs),Boophilus microplus,100%
same,kill,Ctenocephalides felis,100%
same,kill,Lucilia cuprina larvae,100%
same,activity (beetle larvae killed),[1],100%
same,activity (caterpillars killed),[2]; 100 g/ha,100%
same,activity (spider mites killed),[5]; 100 g/ha,90%
same,activity (no deposition of fertile eggs),[6],100%
same,logP,[4]; [7],4.34**
CCOC=Nc1c(-c2cc(Cl)cc(C(F)(F)F)c2)c(C(F)(F)C(F)F)nn1-c1ncccn1 [Example 1-34],activity (no deposition of fertile eggs),Boophilus microplus,100%
same,kill,Ctenocephalides felis,80%
same,kill,Lucilia cuprina larvae,100%
same,activity (beetle larvae killed),[1],100%
same,activity (caterpillars killed),[2]; 100 g/ha,100%
same,activity (affids killed),[3],90%
same,activity (spider mites killed),[5]; 100 g/ha,100%
same,kill,adult Musca domestica; 100 ppm,100%
same,logP,[4]; [7],4.43**
CCOC=Nc1c(-c2cc(Cl)c3c(c2)OCO3)c(C(F)(F)C(F)F)nn1-c1ncccn1 [Example 1-35],activity (no deposition of fertile eggs),Boophilus microplus,100%
same,kill,Ctenocephalides felis,100%
same,kill,Lucilia cuprina larvae,100%
same,activity (beetle larvae killed),[1],100%
same,activity (caterpillars killed),[2]; 100 g/ha,100%
same,activity (spider mites killed),[5]; 100 g/ha,90%
same,kill,adult Musca domestica; 20 ppm,100%
same,activity (no deposition of fertile eggs),[6],100%
same,logP,[4]; [7],3.42**
CC(C)OC=Nc1c(-c2cc(Cl)c3c(c2)OCO3)c(C(F)(F)C(F)F)nn1-c1ncccn1 [Example 1-38],activity (no deposition of fertile eggs),Boophilus microplus,100%
same,kill,Ctenocephalides felis,100%
same,kill,Lucilia cuprina larvae,100%
same,activity (beetle larvae killed),[1],100%
same,activity (caterpillars killed),[2]; 100 g/ha,100%
same,activity (spider mites killed),[5]; 100 g/ha,100%
same,kill,adult Musca domestica; 20 ppm,100%
same,activity (no deposition of fertile eggs),[6],100%
same,logP,[4]; [7],3.66**
FC(F)(F)c1cc(Cl)cc(-c2c(C(F)(F)C(F)(F)F)nn(-c3ncccn3)c2N=Cc2ccc(Cl)cc2)c1 [Example 1-40],activity (no deposition of fertile eggs),Boophilus microplus,100%
same,kill,Ctenocephalides felis,100%
same,kill,Lucilia cuprina larvae,100%
same,activity (beetle larvae killed),[1],100%
same,activity (caterpillars killed),[2]; 100 g/ha,100%
same,activity (spider mites killed),[5]; 100 g/ha,100%
same,kill,adult Musca domestica; 100 ppm,100%
same,logP,[4]; [7],5.93**
COc1ccc(C=Nc2c(-c3cc(Cl)cc(C(F)(F)F)c3)c(C(F)(F)C(F)(F)F)nn2-c2ncccn2)cc1 [Example 1-41],activity (no deposition of fertile eggs),Boophilus microplus,100%
same,kill,Ctenocephalides felis,100%
same,kill,Lucilia cuprina larvae,100%
same,activity (beetle larvae killed),[1],100%
same,activity (caterpillars killed),[2]; 100 g/ha,100%
same,activity (spider mites killed),[5]; 100 g/ha,100%
same,kill,adult Musca domestica; 100 ppm,100%
same,logP,[4]; [7],5.4**
CCOC=Nc1c(-c2cc(Cl)cc(C(F)(F)F)c2)c(C(F)(F)C(F)(F)F)nn1-c1ncccn1 [Example 1-43],activity (beetle larvae killed),[1],100%
same,activity (caterpillars killed),[2]; 100 g/ha,100%
same,activity (affids killed),[3],100%
same,activity (spider mites killed),[5]; 100 g/ha,100%
same,logP,[4]; [7],5.02**
CCOC=Nc1c(-c2cc(Cl)c3c(c2)OCO3)c(C(F)(F)F)nn1-c1nccnc1OC [Example 2-18],activity (no deposition of fertile eggs),Boophilus microplus,100%
same,kill,Ctenocephalides felis,100%
same,kill,Lucilia cuprina larvae,100%
same,activity (beetle larvae killed),[1],100%
same,activity (caterpillars killed),[2]; 100 g/ha,100%
same,activity (affids killed),[3],100%
same,activity (spider mites killed),[5]; 100 g/ha,100%
same,activity (no deposition of fertile eggs),[6],100%
same,logP,[4]; [7],4.03**
COc1nccnc1-n1nc(C(F)(F)F)c(-c2cc(Cl)c3c(c2)OCO3)c1N=COC(C)C [Example 2-19],activity (no deposition of fertile eggs),Boophilus microplus,100%
same,kill,Ctenocephalides felis,90%
same,kill,Lucilia cuprina larvae,100%
same,activity (beetle larvae killed),[1],100%
same,activity (caterpillars killed),[2]; 100 g/ha,100%
same,activity (spider mites killed),[5]; 100 g/ha,100%
same,kill,adult Musca domestica; 20 ppm,100%
same,activity (no deposition of fertile eggs),[6],80%
same,logP,[4]; [7],4.26**
